Data published in patent publication US6573243B1, “Pompilid wasp-derived neuropeptides” (Suntory Limited, priority 1997, dated 2003).

System: nerve-muscle junction of a lobster's walking leg
Assay: Effect on excitatory postsynaptic potential (EPSP) in the neuromuscular specimen of a lobster's walking leg
Details: for concentration at which the peptide enhanced EPSP: sample dissolved in artificial seawater on the nerve-muscle junction side, excitatory nerve electrically stimulated; for biological activity of the synthetic peptide compared with the natural peptide: synthetic vs natural peptide
Method: The biological activity of the present peptides can be assayed according to the methods described in Japanese Patent Laid-Open No. 4-198161, in which excitatory postsynaptic potential (EPSP) is generated in the neuromuscular specimen of a lobster's walking leg, and the effect of the compound given to the nerve fibers on the EPSP is determined.
In general, substances inhibiting EPSP are believed to be glutamate antagonists or inhibitors for the release of glutamic acid, and the substances enhancing EPSP are believed to be glutamate-like agonists or accelerators for the release of glutamic acid.
The effect of the present peptides on excitatory postsynaptic potential (EPSP) was measured according to the method disclosed in Japanese Patent Laid-Open No. 4-198161. Thus, the shell of a lobster's walking leg was removed to expose the excitatory nerve and the inhibitory nerve, and a stimulating electrode was attached thereto. Then the nerve-muscle junction was exposed, and a recording electrode was attached thereto. The walking leg equipped with the electrodes was transferred to a container filled with an artificial seawater, and a partition was set up between the stimulating electrode part and the recording electrode part. The samples to be measured were dissolved into the artificial seawater in the recording electrode side (i.e., the side containing the nerve-muscle junction). Subsequently, the excitatory nerve was electrically stimulated and the EPSP, which was induced by glutamic acid released from the nerve end in response to the stimulation, was recorded.

| Substance | concentration at which the peptide enhanced EPSP | biological activity of the synthetic peptide compared with the natural peptide |
| --- | --- | --- |
| H-Arg-Ile-Lys-Ile-Gly-Leu-Phe-Asp-Gln-Leu-Ser-Arg-Leu-NH2 (H-RIKIGLFDQLSRL-NH2) [peptide (97)] | 200 nM | same biological activity as the natural peptides |
| H-Arg-Ile-Lys-Ile-Gly-Leu-Phe-Asp-Gln-Leu-Ser-Lys-Leu-NH2 (H-RIKIGLFDQLSKL-NH2) [peptide (1)] | 1000 nM | same biological activity as the natural peptides |
